Measurements: patent publication US20110060000A1, “ACRIDINE ANALOGS IN THE TREATMENT OF GLIOMAS” (priority 2009, published 2011)

Legend:
[1] = tested on: glioma cells; assay: Gliotoxicity, cell line not stated; assay type: cell-based; settings: cell line not stated
From the text: Spiperone is a selective D2 dopamine receptor antagonist. This drug is used in the treatment of schizophrenia and other hallucinatory states. […] In an effort to develop Structure-Activity Relationships around the chosen compounds, a search of commercially available compounds that are either close structural analogs of these lead compounds (for example, acridine and quinoline analogs of quinacrine) or are related to these in terms of their pharmacological activity (dopamine receptor antagonists related to spiperone) was performed.

[2] = tested on: GRP78 promoter; assay: GRP78-luc reporter assay in stably transfected U87-MG clone A5; assay type: cell-based, human; settings: for GRP78 promoter driven luciferase (GRP78-luc) expression: result in words
Protocol: The promoter region contains the sequence of the GRP78 promoter from −139 to +7. In this part of the promoter there are three ER stress responsive elements and the TATA box to which is linked in frame the firefly luciferase sequence.
Compounds were plated in half area 96 well plates at the final concentration of 2 μM in 5 μl of media. Cells were added in 45 μl afterwards at the density of 5000/well. Plates were read after 16 h in an Envision high efficiency plate reader. Results are represented as a plate layout in which different shadings indicate the different rows and the number indicate the different lines. As a standard negative and positive controls were located in the outer columns.
A construct coding a large part of the human GRP78 promoter, attached to the reporter gene firefly luciferase was used (see FIG. 16 for a schematic) (Yoshida et al., 1998).
The promoter region contains the sequence of the GRP78 promoter from −139 to +7. In this part of the promoter there are three ER stress responsive elements and the TATA box to which is linked in frame the firefly luciferase sequence (FIG. 16)(Yoshida et al., 1998). The construct, which was cloned in an expression vector, was transfected into E. Coli, amplified, purified and checked it by enzymatic digestion. Thereafter, C6 and U87-MG were transiently transfected with the plasmid. After 24 hours the cells were challenged with THAP and TUN for 24 hours. Although, in transient transfection only a small part of the cell population expresses the transduced gene, a significant induction by THAP and TUN was detected over 24 hours. Armed with these encouraging data human glioma cells U87-MG were transfected with both the above described construct and a construct carrying resistance to blasticidin. The sensitivity of these cells to the antibiotic has previously been assessed. 24 hours after the transfection the antibiotic at its 75% inhibitory concentration was added. The cells were given time to proliferate. Two pools called P2 and P5 were selected and luciferase expression was assessed. […] Clones from these two pools were isolated. Luciferase expression in the clones was characterized and a clone called A5, in which baseline expression of the construct was reasonably low and induction with two positive controls was large and consistent, was selected. This clone, several back up clones, and the pools were amplified and frozen in sufficient amounts to guarantee continuity in case needed. Next, the effect of the incubation time on luciferase induction was assessed. Since this assay can be affected by false negative due to toxicity of hit compounds, the incubation times were kept as short as possible. Therefore, several incubation times were tested, including 8, 16 and 24 h. The goal was not to incubate longer than 24 hours because toxicity starts to develop at that time point. […] At this time point the induction is about 6-7 fold. Previously, using a different assay, a half a million compound library was screened very easily using 2.5 thousands cells per well in 1536 plates. […] With this cell number the dynamic range is large and the fold of induction of 6-7 is maintained.
It is common practice in the field of high throughput screening to assess the so called z number of the assay. This statistical parameter indicates the suitability of a given assay for high throughput screening. The z-value in a word describes the likelihood of a single point hit not to be false positive. The z value is a number lower than or equal to one. Values above 0.5 indicate a robust assay. Values below 0.5 but above 0 indicate an assay that probably needs to be run in duplicate. Negative values indicate assays whose predictability is very low. Z values are usually determined in a high density format plate usually a 96 well plate in manual conditions or a 384-1536 plate format in automated liquid handling environment. Z value determination has been performed using half area 96 well plates in manual mode. […]

[3] = tested on: NF-κB; settings: tumor cells; cited from earlier work
[4] = tested on: subcutaneous U87-MG gliomas; assay: Mice bearing subcutaneous U87-MG gliomas; assay type: in vivo
From the text: The estimated survival prolongment is 14 days in mice life which compares at 851 days in human life based on a life expectancy of 18 months in mice and 90 years in human. Also, since one animal was tumor-free at the end of the treatment that translates in an expected 16% cure rate.
FIG. 29a graphs % tumor weight/control as a function of days after implantation. […] Such a profile indicates effectiveness in vivo for both treatment and for prevention of relapse. FIG. 29b graphs % animal survival as a function of days after implantation. […] Such a profile indicates effectiveness in vivo for both treatment and for prevention of relapse.
Mice bearing subcutaneous gliomas were received daily oral administration of 200 mg/kg of quinacrine. […] In FIG. 29 is shown the effect of 100 mg/kg of quinacrine and 10 mg/kg 9-aminoacridine in Mice bearing subcutaneous U87-MG gliomas.

[5] = tested on: p53; settings: cited from earlier work
[6] = tested on: DNA; settings: cited from earlier work
[7] = tested on: U87-MG skin xenograft tumor explants; assay: U87-MG skin xenograft tumor explants, ERSR markers; assay type: in vivo, mice; settings: samples after 7 and 21 days
From the text: U7 represents vehicle treated sample after 7 days. U21 represents vehicle treated sample after 21 days. Q7 represents quinacridine-treated sample after 7 days. Q21 represents quinacridine-treated sample after 21 days. 9AA-7 represents 9-aminoacridine-treated sample after 7 days. 9AA-21 represents 9-aminoacridine-treated sample after 21 days.

[8] = tested on: tumor cells; settings: in vitro and in vivo; cited from earlier work
[9] = tested on: C6; assay: [Ca2+]i measurement in C6; assay type: cell-based, rat
From the text: (Statistical analysis it is shown in the inset. Values at the peak of the response have been analyzed using ANOVA followed by T-test, ** indicate P<0.01.).
Ca^2+ mobilization from ER was caused using an agonist acting via inositol trisphosphate elevation, mimicking physiological responses. In these conditions the dynamics of Ca^2+ transients were observe in these two cell lines. It appears evident that the plateau phase in C6 is consistently larger than in astrocytes.
Panel A: Challenge of astrocytes with ATP show the unchanged typical spike and plateau response. Panel B: In C6 an oscillatory pattern is readily detectable in response to treatment with TUN.
Tools and protocols have been developed to cleanly observe capacitative Ca^2+ entry (CCE), the phenomenon that allows the replenishment of intracellular Ca^2+ (ICS) stores and make quantitative and qualitative assessments. In particular, in astrocytes, capacitative Ca^2+ entry happens in absence of cytoplasmic Ca^2+ concentration ([Ca^2+]i) elevation (Grimaldi; 2006)(FIG. 1). […] The study was designed to investigate if there was a difference between astrocytes and glial cancer cells in this distinctive homeostatic pattern. The findings presented in this study, indicate that there are striking differences between glial cells and their cancer counterpart. The model utilizes rat cells but the observations extend and apply to human glioma cells as well. When the responses of normal astrocytes and C6 cells to thapsigargin (THAP), an agent able to block SERCA, therefore causing the release of Ca^2+ from the ER, were compared it was evident that C6 was more sensitive to the THAP (FIG. 2). However, the difference can be ascribed to one of many possibilities. […]
This phase is dependent on the balance of Ca^2+ influx triggered by store depletion and the reuptake in the ER due to SERCA activity. […] To investigate the role of influx triggered by ICS depletion, CCE was analyzed following THAP-induced depletion of ICS. […]

[10] = tested on: phospholipase A2 (PLA2); settings: cited from earlier work
[11] = tested on: PLA2; settings: coinjection with PLA2; cited from earlier work
[12] = tested on: C6; assay: TUNEL labeling in C6; assay type: cell-based, rat; settings: C6, 24 hours
Protocol: C6 were plated on glass coverslips. Cells were fixed and stained accordingly to manufacturer instructions. Propidium staining of the nuclei was replaced by Hoechst included in the mounting media. Several images were acquired with a high resolution camera on a microscope equipped with a 10× long working distance dry lens and analyzed with powerful commercial software. Results were expressed in the graph as green labeled pixel counts. The images from the top to the bottom are respectively from N.T., DMSO, Thap 20 nM, Thap 200 nM, STS100 nM. The blue images reflect nuclear staining while the images on the right represent BRDU staining.
Thereafter, cells were harvested and protein extracted. Procaspase 12 band at 65 kDa was identified. In some of the treatments, the active product at 45 kDa was also detected. […] Conversely, in C6, higher GRP78 levels and the cell environment reflect significant caspase activation. […] Caspase activation in ERSR conditions was also confirmed with a TUNEL based apoptosis detection system in C6. […] High resolution images of the experiments were acquired and image morphometric analysis was performed to determine quantitative parameters of the staining as previously described (Pascale et al., 2004, “Translocation of protein kinase C-betaII in astrocytes requires organized actin cytoskeleton and is not accompanied by synchronous RACK1 relocation.” Glia 46(2): 169-82). […]

[13] = full dose over about 45 days, Q oral, 9-AA I.P.
[14] = half dose (maintenance dose) up to about 60 days

**Q.** What does the source list for `Cl.Nc1c2ccccc2nc2ccccc12.O` [9-aminoacridine, hydrate, hydrochloride]?
**A.** gliotoxicity [1]: causes gliotoxicity; GRP78 promoter driven luciferase (GRP78-luc) expression ([2]; hydrate, hydrochloride): causes increased expression of the GRP78-luc reporter gene

**Q.** With `Nc1c2ccccc2nc2ccccc12` [9-aminoacridine] as the compound, how does the “stimulated and basal constitutive NF-κB activity” value [3] read?
**A.** block stimulated NF-κB activity and also effectively reduce basal levels of constitutive NF-κB activity

**Q.** And the cure rate ([4]; 10 mg/kg 9-aminoacridine)?
**A.** 77%

**Q.** What about the antiglioma action ([4]; 100 mg/kg of quinacrine and 10 mg/kg 9-aminoacridine) of the same compound?
**A.** powerful antiglioma action

**Q.** What about the “tumor once survival rate stabilized” value ([4]; 9-AA I.P.) of the same compound?
**A.** no sign of tumor

**Q.** What about the “animal survival rate compared to control” value [4, 13] of the same compound?
**A.** increased survival rate

**Q.** And the “tumor size compared to control” value [4, 13]?
**A.** decrease in tumor size

**Q.** What about the “animal survival rate compared to control” value [4, 14] of the same compound?
**A.** survival rate was high

**Q.** And the “tumor size compared to control” value [4, 14]?
**A.** tumor size remained relatively constant

**Q.** And the “p53 activation and p53-dependent killing of tumor cell types” value [5]?
**A.** capable of p53 activation and p53-dependent killing

**Q.** And the DNA damaging activity [6]?
**A.** not found to show DNA damaging activity

**Q.** And the “ERSR activation and GRP78 target protein in tumor explants” value [7]?
**A.** activaiton of ERSR and changes in GRP78 target protein

**Q.** What about the “caspase 12 activation in tumor explants” value [7] of the same compound?
**A.** activation of caspase 12 is evident

**Q.** What about the “toxicity to tumor versus normal cells” value [8] of the same compound?
**A.** more toxic to tumor than to normal cells

**Q.** Which “[Ca2+]i response of C6 to ATP compared with astrocytes” value [9] does the source give for `Nc1ncnc2c1ncn2[C@@H]1O[C@H](COP(=O)(O)OP(=O)(O)OP(=O)(O)O)[C@@H](O)[C@H]1O` [ATP] here?
**A.** increased elevation of [Ca^2+]i

**Q.** What does the source list for `CCN(CC)CCCC(C)Nc1c2cc(OC)ccc2nc2cc(Cl)c(N)cc12` (stereo not drawn) [OSSL-053454, 3-chloro-N^9-(5-(diethlyamino)pentan-2-yl)-7-methoxy acridine-2,9-diamine]?
**A.** gliotoxicity [1]: causes gliotoxicity similar to that caused by quinacrine; gliotoxicity ([1]; listed as OSSL 53454): causes gliotoxicity; GRP78 promoter driven luciferase (GRP78-luc) expression [2]: causes an increase of the GRP78-luc reporter gene similar to the increase caused by quinacrine; GRP78 promoter driven luciferase (GRP78-luc) expression ([2]; listed as OSSL 53454): causes an increase of the GRP78-luc reporter gene as quinacrine

**Q.** For `CCN(CC)CCCC(C)Nc1c2ccc(Cl)cc2nc2ccc(OC)cc12.Cl.Cl` (stereo not drawn) [quinacrine hydrochloride, 6-chloro-9-((4-(diethylamino)-1-methylbutyl)amino)-2-methoxyacridine dihydrochloride], which “PLA2 inhibition in platelets” value [10] is on record?
**A.** phospholipase A2 (PLA2) inhibitor

**Q.** What about the “reduction of the inflammogenic potency of PLA2” value [11] of the same compound?
**A.** 64%

**Q.** With `O=C(CCCN1CCC2(CC1)C(=O)NCN2c1ccccc1)c1ccc(F)cc1` [spiperone] as the compound, how does the “hit in Prestwick library screening (value above average of negative controls + 3 SD)” value ([2]; 2 μM, 5000 cells/well, read after 16 h) read?
**A.** potentially attractive lead compounds

**Q.** Which TUNEL labeling [12] does the source give for `CN[C@@H]1C[C@H]2O[C@@](C)([C@@H]1OC)n1c3ccccc3c3c4c(c5c6ccccc6n2c5c31)C(=O)NC4` [staurosporin] here?
**A.** clear increase of TUNEL labeling
